Results as given in US20120232062A1, “AZAINDAZOLES TO TREAT FLAVIVIRIDAE VIRUS INFECTION” (EIGER BIOPHARMACEUTICALS, INC., priority 2009, published 2012).
Like-named read-outs stand apart in the source and are kept apart here.

System: HCV genotype 1b
Assay: HCV 1b replicon luciferase assay
Format: cell-based
Conditions: Table 1, Huh7 HCV 1b replicon, luciferase reporter, 48 hours, read-out: 1b EC50
Excerpt: A suitable 1b HCV RNA replicon assay uses the Huh7 cell line which contains an HCV 1b RNA replicon with a stable luciferase (LUC) reporter. This construct contains modifications that make the cell line more robust and provides stable LUC expression for antiviral screening. The LUC reporter is used as an indirect measure of HCV replication. The activity of the LUC reporter is directly proportional to HCV RNA levels and positive control antiviral compounds behave comparably using LUC endpoints. […]
Fresh growth medium is prepared just before use. The container used in the procedure is a 10 cm diameter culture dish. HCV replicon reporter cell lines are used. Prepare complete medium: add FBS and appropriate additives as described in “Culture Media”, below. Pre-warm the medium in a 37° C. thermostat water bath. Remove the dish from a 37° C. CO2 incubator. Check the cell name and complete medium and passage number marked on the dish. Aspirate the medium carefully and add 1 ml PBS to rinse the cells. Remove and discard the solution and add 1 ml of 0.25% Trypsin/0.02% EDTA. Rinse the cells with the added Trypsin/EDTA to ensure all the cells have been rinsed. Remove the Trypsin/EDTA with a vacuum pump and incubate at 37° C. for 3-5 minutes. Examine the cell morphology under an inverted microscope to confirm that a single cell suspension is clearly visible. Add 3 ml of complete medium to the dish and suspend the cell by gentle pipetting. Count the cell numbers with a hematometer. Adjust cell density to 100 k/ml by adding appropriate volume of the complete medium. Add 100 μl of cell suspension to each well of a 96-well white plate; the cell density is thus 10 k per well. Mark the plate with cell name, passage number, seeding density, date and the name of the operator. Place the 96-well assay plate in 37° C. 5% CO2 incubator for 24 hours.
Compounds are prepared or provided at 25 mM in 100% DMSO. This is the compound stock solution. The dilution procedure should be performed in a cell culture hood. Dispense the stock solution into the second column of a 96-well plate. Prepare 9-step (10 concentrations total), 5-fold serial dilutions by transferring 10 μA of the compound into the next well containing 40 μA of DMSO. Repeat for all compounds. Aspirate 2 μl of the above compound solution from each well and add into 198 μl complete media using a 12-channel pipetter to obtain the 10-fold concentration compound solution with 1% DMSO, mix well.
Remove the 96-well assay plate from the 37° C./5% CO2 incubator, examine the cell morphology under an inverted microscope. In a cell culture hood, add 10 μl of the 10× concentration compounds solution into each well on the 96-well assay plate. All compound's dose responses are done in duplicate. The starting final concentration of the compounds is 25 μM, and DMSO final concentration 0.1%. Mark the plate with compound code(s) and concentrations. Place the 96-well assay plate into CO2 incubator for 48 hours. Add 30 μl of Stead-Glo Luciferase System (Promega) reagent to each well and mix by gentle shaking on a plate shaker for 5 minutes to allow throughout cell lysis. Measure the luminescence with Envision (Perkin Elmer) with an integration time of 2 seconds. Record and analyze the data.
The cell culture media is DMEM complete: DMEM (Life Technologies #41965-039) supplemented with 10% FCS, 2 mM Glutamin (Life Technologies #25030-024), Penicillin (100 IU/ml)/Streptomycin (100 μg/ml) (Life Technologies #15140-114) and 1× nonessential amino acids (Life Technologies #11140-035). G418 (“Geneticin”, Life Technologies): concentrations are given as weight per volume of the original substance. Specific activity of a typical batch is ca. 700 μg/mg as stated by the manufacturer. […] Therefore each new batch of G418 should be tested individually e.g. in an electroporation experiment using different selection conditions (0.2-1 mg/ml).

| Compound | EC50 (Hepatitis C virus, Huh-7, 48 h) | EC50 |
| --- | --- | --- |
| Cn1nc(C(=O)NC2CCNCC2)c2ccc(NCc3ccccc3)nc21 [compound 1042] | 3800 nM |  |
| Cn1nc(C(=O)NC2CCN(Cc3ccncc3)CC2)c2ccc(N3CCCCCC3)nc21 [compound 1043] | 1200 nM |  |
| COc1ccc(CN2CCC(NC(=O)c3nn(C)c4nc(N5CCCCCC5)ccc34)CC2)cc1 [compound 1044] | 760 nM |  |
| Cc1ccc(CN2CCC(NC(=O)c3nn(C)c4nc(N5CCCCCC5)ccc34)CC2)cc1 [compound 1045] |  | 1100 nM |
| CC(C)c1ccc(CN2CCC(NC(=O)c3nn(C)c4nc(N5CCCCCC5)ccc34)CC2)cc1 [compound 1046] | 1400 nM |  |
| Cn1nc(C(=O)NC2CCNCC2)c2ccc(N3CCCN(Cc4ccccc4)CC3)nc21 [compound 1049] | 6100 nM |  |
| Cn1nc(C(=O)NC2CCNCC2)c2ccc(OCc3ccccc3)nc21 [compound 1051] | 2900 nM |  |
| Cn1nc(-c2c[nH]c(CC3CCNCC3)n2)c2ccc(N3CCCCCC3)nc21 [compound 1054] | 8600 nM |  |
| Cn1nc(C(=O)NC2CCNCC2)c2ccc(OCc3ccccc3Br)nc21 [compound 1065] | 3300 nM |  |
| Cn1nc(C(=O)NC2CCNCC2)c2ccc(OCc3ccccc3-c3nc4ccccc4s3)nc21 [compound 1066] | 2500 nM |  |
| Cn1nc(-c2ncc(-c3ccc(Br)cc3)[nH]2)c2ccc(N3CCCCCC3)nc21 [compound 1069] | 8300 nM |  |
| Cn1nc(C(=O)NC2CCN(CC3CCCCC3)CC2)c2ccc(NC3CCCCCC3)nc21 [compound 1073] | 670 nM |  |
| CC(C)CN(C)c1ccc2c(C(=O)NC3CCN(CC4CCCCC4)CC3)nn(C)c2n1 [compound 1075] | 760 nM |  |
| Cn1nc(C(=O)NC2CCN(CC3CCCCC3)CC2)c2ccc(NC3CCCCCCC3)nc21 [compound 1076] | 600 nM |  |
| CN(c1ccc2c(C(=O)NC3CCN(CC4CCCCC4)CC3)nn(C)c2n1)C1CCCCCC1 [compound 1077] | 1600 nM |  |
| Cn1nc(C(=O)NC2CCNCC2)c2ccc(OCc3ccccc3-c3cccnc3)nc21 [compound 1085] | 2200 nM |  |
| Cn1nc(C(=O)NC2CCNCC2)c2ccc(OCc3ccccc3-c3cccc(Cl)c3)nc21 [compound 1088] | 1400 nM |  |
| Cn1nc(-c2c[nH]c(C3CCNCC3)n2)c2ccc(N3CCCCCC3)nc21 [compound 1094] | 6500 nM |  |
| Cn1nc(-c2c[nH]c(C3CCCNC3)n2)c2ccc(N3CCCCCC3)nc21 (stereo not drawn) [compound 1095] | 3800 nM |  |
| Cn1nc(-c2coc(CC3CCNCC3)n2)c2ccc(N3CCCCCC3)nc21 [compound 1096] | 2800 nM |  |

| Compound | EC50 (Hepatitis C virus, Huh-7, 48 h) | EC50 |
| --- | --- | --- |
| Cn1nc(-c2cnc(C(=O)NCC3CCNCC3)s2)c2ccc(N3CCCCCC3)nc21 [compound 1097] | 3400 nM |  |
| Cn1nc(C(=O)NC2CCNCC2)c2ccc(OCc3ccccc3-c3ccco3)nc21 [compound 1100] | 1400 nM |  |
| Cn1nc(C(=O)NC2CCNCC2)c2ccc(OCc3ccccc3-c3cccs3)nc21 [compound 1101] | 800 nM |  |
| Cn1nc(C(=O)NC2CCNCC2)c2ccc(OCc3ccccc3-c3ccc(Cl)cc3)nc21 [compound 1102] | 620 nM |  |
| C=CCCCCCCN1CCC(NC(=O)c2nn(C)c3nc(N4CCCCCC4)ccc23)CC1 [compound 1103] | 300 nM |  |
| C=CCCCn1nc(C(=O)NC2CCN(CC=C)CC2)c2ccc(N3CCCCCC3)nc21 [compound 1104] | 2200 nM |  |
| C=CCCCCn1nc(C(=O)NC2CCN(CC=C)CC2)c2ccc(N3CCCCCC3)nc21 [compound 1105] | 7500 nM |  |
| C=CCCCCCn1nc(C(=O)NC2CCN(CC=C)CC2)c2ccc(N3CCCCCC3)nc21 [compound 1106] | 8100 nM |  |
| COc1cncc(-c2ccccc2COc2ccc3c(C(=O)NC4CCNCC4)nn(C)c3n2)c1 [compound 1119] | 1500 nM |  |
| Cn1nc(-c2nnc(C3CCNCC3)o2)c2ccc(N3CCCCCC3)nc21 [compound 1125] | 840 nM |  |
| Cn1cc(-c2nn(C)c3nc(N4CCCCCC4)ccc23)nc1CC1CCNCC1 [compound 1126] | 7700 nM |  |
| Cn1nc(-c2cnc(C(=O)NC3CCNCC3)s2)c2ccc(N3CCCCCC3)nc21 [compound 1127] | 2900 nM |  |
| Cn1nc(-c2cnc(C(=O)NC3CCCNC3)s2)c2ccc(N3CCCCCC3)nc21 (stereo not drawn) [compound 1128] | 490 nM |  |
| Cn1nc(-c2cnc(C(=O)NCC3CCCNC3)s2)c2ccc(N3CCCCCC3)nc21 (stereo not drawn) [compound 1130] | 990 nM |  |
| CC1CC(NC(=O)c2nn(C)c3nc(N4CCCCCCC4)ccc23)CCN1CC1CCCCC1 (stereo not drawn) [compound 1151] | 1400 nM |  |
| CC1CC(NC(=O)c2nn(C)c3nc(N4CCCCCCC4)ccc23)CCN1Cc1ccc(OC(F)F)cc1 (stereo not drawn) [compound 1152] | 6100 nM |  |
| CC1CC(NC(=O)c2nn(C)c3nc(N4CCCCCCC4)ccc23)CCN1CCCC1CCCCC1 (stereo not drawn) [compound 1153] | 1500 nM |  |
| Cn1nc(CCCN2CCCCC2)c2ccc(N3CCCCCCC3)nc21 [compound 1172] | 1500 nM |  |
| CCN(c1ccc2c(C(=O)NC3CCN(CC4CCCCC4)CC3)nn(C)c2n1)C1CCCCCC1 [compound 1183] | 746 nM |  |
| Cn1nc(C(=O)NC2CCN(CC3CCCCC3)CC2)c2ccc(N(Cc3ccccc3)C3CCCCCC3)nc21 [compound 1184] | 168 nM |  |

| Compound | EC50 (Hepatitis C virus, Huh-7, 48 h) | EC50 |
| --- | --- | --- |
| Clc1ccc(Cn2nc(COCCN3CCCCC3)c3ccc(N4CCCCCCC4)nc32)cc1 [compound 1204] | 5400 nM |  |
| Clc1ccc(Cn2nc(COCCCN3CCCCC3)c3ccc(N4CCCCCCC4)nc32)cc1 [compound 1205] | 4000 nM |  |
| Cn1nc(C(=O)NC2CCN(CC3CC3)CC2)c2ccc(N3CCCCCCC3)nc21 [compound 1222] | 3200 nM |  |
| Cn1nc(C(=O)NC2CCN(CC(F)F)CC2)c2ccc(N3CCCCCCC3)nc21 [compound 1223] | 2800 nM |  |
| Cc1ccc(CN2CCC(NC(=O)c3nn(C)c4nc(N5CCCCCCC5)ccc34)CC2)cc1 [compound 1224] | 2700 nM |  |
| CC(C)CCN1CCC(NC(=O)c2nn(C)c3nc(N4CCCCCCC4)ccc23)CC1C (stereo not drawn) [compound 1233] | 5300 nM |  |
| CCN1CCC(NC(=O)c2nn(C)c3nc(N4CCCCCCC4)ccc23)CC1C (stereo not drawn) [compound 1234] | 1900 nM |  |
| CCCN1CCC(NC(=O)c2nn(C)c3nc(N4CCCCCCC4)ccc23)CC1 [compound 1235] | 3400 nM |  |
| CC(C)CN1CCC(NC(=O)c2nn(C)c3nc(N4CCCCCCC4)ccc23)CC1 [compound 1236] | 6300 nM |  |
| Cn1nc(-c2cnc(C3CCCNC3)s2)c2ccc(N3CCCCCCC3)nc21 (stereo not drawn) [compound 1248] | 4100 nM |  |
| Cn1nc(-c2cnc(C(=O)NCc3ccccc3)s2)c2ccc(N3CCCCCCC3)nc21 [compound 1250] | 1400 nM |  |
| Cn1nc(-c2cnc(C(=O)NCC3CCCCC3)s2)c2ccc(N3CCCCCCC3)nc21 [compound 1251] | 1000 nM |  |
| Cn1nc(-c2cnc(C(=O)NC3CCCCC3)s2)c2ccc(N3CCCCCCC3)nc21 [compound 1254] | 1400 nM |  |
| Cn1nc(-c2cnc(C3CCCN(CC4CCCCC4)C3)s2)c2ccc(N3CCCCCCC3)nc21 (stereo not drawn) [compound 1255] | 3000 nM |  |
| Cn1nc(-c2cnc(C3CCCN(Cc4ccc(OC(F)F)cc4)C3)s2)c2ccc(N3CCCCCCC3)nc21 (stereo not drawn) [compound 1257] | 2400 nM |  |
| Cn1nc(-c2cnc(C(=O)NCC3CCCN(CC(F)F)C3)s2)c2ccc(N3CCCCCCC3)nc21 (stereo not drawn) [compound 1261] | 1800 nM |  |
| Cn1nc(-c2cnc([C@@H]3CCCN3CC3CCCCC3)s2)c2ccc(N3CCCCCCC3)nc21 [compound 1264] | 2400 nM |  |
| Cn1nc(-c2cnc(C3CCN(CC4CCCCC4)C3)s2)c2ccc(N3CCCCCCC3)nc21 (stereo not drawn) [compound 1268] | 580 nM |  |
| Cn1nc(-c2cnc(C3CCN(CC(F)F)C3)s2)c2ccc(N3CCCCCCC3)nc21 (stereo not drawn) [compound 1269] | 4600 nM |  |
| Cn1nc(-c2nnc(C3CCCNC3)o2)c2ccc(N3CCCCCCC3)nc21 (stereo not drawn) [compound 1271] | 3200 nM |  |
